The results in this text go back to patent publication US12686690B2, “Macrocyclic urea orexin receptor agonists” (Merck Sharp & Dohme LLC, priority 2020, dated 2026).

For the assay, the target named is T1, hOX2R (Homo sapiens, UniProt O43614).
T1 construct: expressed in transfected cells; host or cells: CHO cells (G418 selection)
T1 sequence (O43614 1-444): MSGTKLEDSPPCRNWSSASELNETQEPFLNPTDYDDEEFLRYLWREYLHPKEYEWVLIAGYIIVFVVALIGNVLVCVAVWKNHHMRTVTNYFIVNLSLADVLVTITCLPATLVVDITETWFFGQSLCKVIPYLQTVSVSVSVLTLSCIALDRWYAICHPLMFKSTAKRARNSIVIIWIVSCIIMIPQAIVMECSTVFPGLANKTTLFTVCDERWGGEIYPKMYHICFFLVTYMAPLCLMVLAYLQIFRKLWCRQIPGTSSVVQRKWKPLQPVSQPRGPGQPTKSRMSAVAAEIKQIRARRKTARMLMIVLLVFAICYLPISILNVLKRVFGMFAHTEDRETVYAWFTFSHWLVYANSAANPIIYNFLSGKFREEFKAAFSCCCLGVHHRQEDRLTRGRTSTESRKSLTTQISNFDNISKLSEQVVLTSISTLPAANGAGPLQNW
The assay can be described thus: hOX2R IPone assay (orexin receptor agonism). Format: cell-based. The note with it: IPone readout; for hOX2R_Ipone max %act: maximal activation; for EC50: orexin receptor agonist, read-out: hOX2R_IPone EC50.

As a reminder, the EC50 is the concentration at which the effect is half-maximal. On to `CCN1C(=O)N[C@@H](CCC(F)(F)F)CCOCCOc2nc(cn3ncnc23)-c2c(OC)cnc(c2F)C1C` (stereo partly drawn) [Example 179, (7S,E)-4-ethyl-23-fluoro-25-methoxy-3-methyl-7-(3,3,3-trifluoropropyl)-10,13-dioxa-4,6-diaza-1(6,8)-[1,2, 4]triazolo[1,5-a]pyrazina-2(4,2)-pyridinacyclotridecaphan-5-one], for which the hOX2R_Ipone max %act was 100.8% and the EC50 is 8.24 nM.

For the molecule `CCN1C(=O)N[C@@H](CCC(F)(F)F)CCCCCOc2cc(cc3cccnc23)-c2cc(ncc2OC)[C@H]1C` [Example 157, (3R,7R)-4-ethyl-25-methoxy-3-methyl-7-(3,3,3-trifluoropropyl)-13-oxa-4,6-diaza-1(6,8)-quinolina-2(4,2)-pyridinacyclotridecaphan-5-one], the hOX2R_Ipone max %act came out at 99.72% and the EC50 amounted to 2.68 nM.

Consider `CCN1C(=O)N[C@@H](CCC(F)(F)F)COCCCOc2nc(cn3cnnc23)-c2cc(ncc2OC)[C@H]1C` [Example 173, (3R,7S,E)-4-ethyl-25-methoxy-3-methyl-7-(3,3,3trifluoropropyl)-9,13-dioxa-4,6-diaza-1(6,8)-[1,2,4]triazolo[4,3-a]pyrazina-2(4,2)-pyridinacyclotridecaphan-5-one], for which the hOX2R_Ipone max %act came to 103.9% and the 50% effective concentration (EC50) turned out to be 3.71 nM.

On to `CCN1C(=O)NCCCCCCOc2nc(cn3ccnc23)-c2cccc(c2)[C@H]1C` [Example 12, (12R)-13-ethyl-12-methyl-12,13,16,17,18,19, 20,21-octahydro-6,23-(azeno)-11,7-(metheno) imidazo[2,1-c][1,4,13,15]oxa-triazacyclohenicosin-14(15H)-one], for which the hOX2R_Ipone max %act amounted to 99.76% and the EC50 came out at 20.3 nM.

Take `CCN1C(=O)NC(CCC(F)(F)F)COCCCOc2nc(cn3ccnc23)-c2cc(ncc2OC)[C@H]1C` (single isomer, unassigned) [Example 21B]: the hOX2R_Ipone max %act is 100.3% and the EC50 was determined as 0.5 nM.

Regarding `CCN1C(=O)N[C@@H](CCC(C)(F)F)CCCCCOc2nc(cn3ncnc23)-c2cc(cnc2C)[C@H]1C` [Example 146, (3R,7R,E)-7-(3,3-difluorobutyl)-4-ethyl-22,3-dimethyl-13-oxa-4,6-diaza-1(6,8)-[1,2,4]triazolo[1,5-a]pyrazina-2(3,5)-pyridinacyclotridecaphan-5-one], the hOX2R_Ipone max %act turned out to be 100.8% and the EC50 came out at 14.7 nM.

Turning to `CCN1C(=O)N[C@@H](CCC(F)(F)F)CCCCCOc2nc(nn3cc(C)nc23)-c2cc(ncc2OC)[C@H]1C` [Example 123, (3R,7R,E)-4-ethyl-25-methoxy-16,3-dimethyl-7-(3,3,3-trifluoropropyl)-13-oxa-4,6-diaza-1(2,4)-imidazo[2,1-f][1,2,4]triazina-2(4,2)-pyridinacyclotridecaphan-5-one], the hOX2R_Ipone max %act worked out at 102.5% and the EC50 was determined as 13.8 nM.

With `CCN1C(=O)NC2CN(CCCOc3nc(cn4ccnc34)-c3cc(ncc3OC)[C@H]1C)CC2C(F)(F)F` (single isomer, unassigned) [Example 212], the hOX2R_Ipone max %act amounted to 99.48% and the EC50 stood at 2.79 nM.

Take `CCN1C(=O)NC(COC)CCCCCOc2nc(cn3ccnc23)-c2cc(ncc2F)[C@H]1C` (stereo partly drawn) [Example 199, (3R,E)-4-ethyl-25-fluoro-7-(methoxymethyl)-3-methyl-13-oxa-4,6-diaza-1(6,8)-imidazo[1,2-a]pyrazina-2(4,2)-pyridinacyclotridecaphan-5-one]: the hOX2R_Ipone max %act was 100.6% and the EC50 was determined as 4.25 nM.

Regarding `CCN1C(=O)N[C@@H](CCC(F)(F)F)CCCCCOc2nc(cc3ccnn23)-c2cc(ncc2OC)C1C` (single isomer, unassigned) [Example 88A], the hOX2R_Ipone max %act stood at 100.2% and the EC50 is 67.8 nM.

Take `CCN1C(=O)N[C@@H](CCC(F)(F)F)CCCCCOc2nc(cn3ccnc23)-c2cc(nc3ccoc23)C1C` (single isomer, unassigned) [Example 74A]: the hOX2R_Ipone max %act is 99.5% and the EC50 was 17.3 nM.

As for `CCN1C(=O)NCCNCCCOc2cn3ccnc3c(n2)-c2cccc(c2)[C@H]1C` [Example 10, (R,E)-4-ethyl-3-methyl-13-oxa-4,6,9-triaza-1(6,8)-imidazo[1,2-a]pyrazina-2(1,3)-benzenacyclotridecaphan-5-one], the hOX2R_Ipone max %act was 97.61% and the EC50 is 950 nM.

Turning to `CCN1C(=O)NC(CC2CCOC2)CCCCCOc2nc(cn3ccnc23)-c2cc(ncc2OC)[C@H]1C` (single isomer, unassigned) [Example 67B], the hOX2R_Ipone max %act was 101% and the EC50 turned out to be 2.1 nM.

As to `CCN1C(=O)N[C@@H](CCC(F)(F)F)CCCCOc2nc(cn3ccnc23)-c2cccc(c2)[C@H]1C` [Example 32, (3R,7R,E)-4-ethyl-3-methyl-7-(3,3,3-trifluoropropyl)-12-oxa-4,6-diaza-1(6,8)-imidazo[1,2-a]pyrazina-2(1,3)-benzenacyclododecaphan-5-one], the hOX2R_Ipone max %act stood at 101% and the EC50 was found to be 2.8 nM.

In the case of `CCN1C(=O)NC2CN(CCCOc3nc(cn4ccnc34)-c3cccc(c3)[C@H]1C)CC2(F)F` (mixture of isomers) [Example 213, (3R,E)-4-ethyl-7^4,7^4-difluoro-3-methyl-11-oxa-4,6-diaza-1(6,8)-imidazo[1,2-a]pyrazina-7(3,1)-pyrrolidina-2(1,3)-benzenacycloundecaphan-5-one], the hOX2R_Ipone max %act is recorded as 101.8% and the EC50 was determined as 6.44 nM.

On to `CCN1C(=O)N[C@@H](CCC(C)(F)F)CCOCCOc2nc(cc3c(C)cnn23)-c2cc(ncc2OC)[C@H]1C` [Example 171, (3R,7S,E)-7-(3,3-difluorobutyl)-4-ethyl-25-methoxy-3-methyl-9,13-dioxa-4,6-diaza-1(5,7)-pyrazolo[1,5-c]pyrimidina-2(4,2)-pyridinacyclotridecaphan-5-one], for which the hOX2R_Ipone max %act is reported as 107.9% and the EC50 came to 1.45 nM.

Regarding `CCN1C(=O)NC(CC2CC2)CCCCCOc2nc(cn3ccnc23)-c2cc(ncc2OC)[C@H]1C` (single isomer, unassigned) [Example 55A], the hOX2R_Ipone max %act turned out to be 99.2% and the EC50 turned out to be 78.9 nM.

Take `CCN1C(=O)NC(CC2(C(F)(F)F)CC2)CCCCCOc2nc(cn3ccnc23)-c2cc(ncc2OC)[C@H]1C` (single isomer, unassigned) [Example 66B]: the hOX2R_Ipone max %act amounted to 101.1% and the EC50 came to 0.7 nM.

For `CCN1C(=O)NC(CCC(F)(F)F)CCOCCOc2nc(cn3ccnc23)-c2cc(ncc2OC)[C@H]1C` (single isomer, unassigned) [Example 6B], the hOX2R_Ipone max %act was 101.5% and the EC50 turned out to be 0.6 nM.

As to `CCN1C(=O)N[C@@H](C)CCCC(F)(F)COc2nc(cn3ccnc23)-c2cc(ncc2OC)[C@H]1C` [Example 221, (3R,7S,E)-4-ethyl-11,11-difluoro-25-methoxy-3,7-dimethyl-13-oxa-4,6-diaza-1(6,8)-imidazo[1,2-a]pyrazina-2(4,2)-pyridinacyclotridecaphan-5-one], the hOX2R_Ipone max %act was determined as 90.75% and the EC50 was 408 nM.

Regarding `CCN1C(=O)N[C@@H](CCC(F)(F)F)CCCCCOc2nc(cn3cc(C)nc23)-c2cc(nc3ccoc23)C1C` (single isomer, unassigned) [Example 75A], the hOX2R_Ipone max %act came to 96.6% and the EC50 amounted to 528 nM.
